From patent US20240238300A1, “TREATMENT METHODS FOR SUBJECTS WITH CANCER HAVING AN ABERRATION IN EGFR AND/OR HER2” (TAIHO PHARMACEUTICAL CO., LTD., priority 2021, published 2024)
Where two headings read alike, the source gives them in different places.

Columns and labels:
human BCRP [1] = molecular target: T1, human BCRP (Homo sapiens, UniProt Q9UNQ0); assay: inhibitory effect on human BCRP, bidirectional transport of [^3H]prazosin
T1 sequence (Q9UNQ0 1-655): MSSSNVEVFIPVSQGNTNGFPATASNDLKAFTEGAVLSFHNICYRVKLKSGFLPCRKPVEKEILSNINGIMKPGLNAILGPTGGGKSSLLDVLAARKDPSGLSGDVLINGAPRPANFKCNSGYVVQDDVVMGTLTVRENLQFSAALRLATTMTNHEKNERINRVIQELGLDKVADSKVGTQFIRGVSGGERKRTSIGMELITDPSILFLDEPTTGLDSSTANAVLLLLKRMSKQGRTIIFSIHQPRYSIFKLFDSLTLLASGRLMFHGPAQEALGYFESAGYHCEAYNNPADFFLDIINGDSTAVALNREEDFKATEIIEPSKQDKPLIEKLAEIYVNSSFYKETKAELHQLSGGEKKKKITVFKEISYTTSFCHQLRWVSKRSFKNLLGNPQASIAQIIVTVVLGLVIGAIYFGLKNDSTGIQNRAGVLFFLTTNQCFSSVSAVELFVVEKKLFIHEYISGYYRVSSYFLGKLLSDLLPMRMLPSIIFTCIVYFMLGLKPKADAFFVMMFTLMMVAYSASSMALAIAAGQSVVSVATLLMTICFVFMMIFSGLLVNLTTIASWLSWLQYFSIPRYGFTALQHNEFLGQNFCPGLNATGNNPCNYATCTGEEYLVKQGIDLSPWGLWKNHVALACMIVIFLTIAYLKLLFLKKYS

BT-474 cells = assay: growth inhibitory effect in human cancer cell lines (GI50); assay type: cell-based; details: breast cancer, HER2 gene amplification
From the text: (§1) Among the 9 cell lines tested, HER2 gene amplification has previously been reported in BT-474 cells (breast cancer) and NCI-N87 cells (gastric cancer), while HER2 gene mutation (DelG776insVC) has been reported in NCI-H1781 cells (lung cancer).

NCI-N87 cells = assay: as above; assay type: cell-based; details: gastric cancer, HER2 gene amplification
From the text: as §1

NCI-H1781 cells = assay: as above; assay type: cell-based; details: lung cancer, HER2 DelG776insVC
From the text: as §1

[2] = system: NCI-N87 xenografts relapsed from T-DM1; details: for T/C: Step II Day 22, vs T-DM1 group; for Number of Death / TV (mean ± SE): Step II Day 22
Description: Male nude mice (BALB/cAJ1-mu/mu) were implanted with NCI-N87 human gastric carcinoma (HER2 overexpressing); 1.0×10^7 cells in 100 μL of PBS were implanted subcutaneously per mouse.
PO; or treated with an oral suspension of Compound (1) once per day at a dosage of 25 mg/kg/day, PO. The tumor volumes (TV, mm^3) and body weights of the mice were recorded.

[3] = system: refractory T-DM1 NCI-N87 tumor fragment #6; assay: refractory T-DM1 tumor fragment model, comparison to lapatinib and tucatinib; assay type: in vivo, male nude mice (BALB/cAJcl-nu/nu); details: for antitumor effect (tumor volume): 21 days
Description: Cancer Sci. 2020 June; 111(6):2123-2131. The NCI-N87 tumor fragment #6 obtained from the above procedure was then passaged two times into male nude mice (BALB/cAJcl-nu/nu) subcutaneously before the efficacy test of Compound (1).
The tumor volumes (TV, mnm^3) and body weights of the mice were recorded.

human BCRP [4] = molecular target: T1, human BCRP; assay: substrate susceptibility on human BCRP, bidirectional transcellular transport, BCRP/MDCK II cells; assay type: in vitro ADME; design: expressed in transfected cells; host or cells: MDCK II (canine kidney) cells expressing human BCRP; parent MDCK II as control
Description: Substrate susceptibility of Compound (1) on human BCRP. Time-dependence of the bidirectional transcellular transport of 0.3, 0.5, 1, 3, and 30 μmol/L Compound (1) across human BCRP/Madin-Darby canine kidney II (MDCK II) cells and parent/MDCK II cells was analyzed.

human P-gp = molecular target: T2, human P-gp (Homo sapiens, UniProt P08183); assay: substrate susceptibility on human P-gp, bidirectional transcellular transport, P-gp/LLC-PK1 cells; assay type: in vitro ADME
T2 construct: expressed in transfected cells; host or cells: LLC-PK1 (porcine kidney) cells expressing human P-gp; mock/LLC-PK1 as control
T2 sequence (P08183 whole entry): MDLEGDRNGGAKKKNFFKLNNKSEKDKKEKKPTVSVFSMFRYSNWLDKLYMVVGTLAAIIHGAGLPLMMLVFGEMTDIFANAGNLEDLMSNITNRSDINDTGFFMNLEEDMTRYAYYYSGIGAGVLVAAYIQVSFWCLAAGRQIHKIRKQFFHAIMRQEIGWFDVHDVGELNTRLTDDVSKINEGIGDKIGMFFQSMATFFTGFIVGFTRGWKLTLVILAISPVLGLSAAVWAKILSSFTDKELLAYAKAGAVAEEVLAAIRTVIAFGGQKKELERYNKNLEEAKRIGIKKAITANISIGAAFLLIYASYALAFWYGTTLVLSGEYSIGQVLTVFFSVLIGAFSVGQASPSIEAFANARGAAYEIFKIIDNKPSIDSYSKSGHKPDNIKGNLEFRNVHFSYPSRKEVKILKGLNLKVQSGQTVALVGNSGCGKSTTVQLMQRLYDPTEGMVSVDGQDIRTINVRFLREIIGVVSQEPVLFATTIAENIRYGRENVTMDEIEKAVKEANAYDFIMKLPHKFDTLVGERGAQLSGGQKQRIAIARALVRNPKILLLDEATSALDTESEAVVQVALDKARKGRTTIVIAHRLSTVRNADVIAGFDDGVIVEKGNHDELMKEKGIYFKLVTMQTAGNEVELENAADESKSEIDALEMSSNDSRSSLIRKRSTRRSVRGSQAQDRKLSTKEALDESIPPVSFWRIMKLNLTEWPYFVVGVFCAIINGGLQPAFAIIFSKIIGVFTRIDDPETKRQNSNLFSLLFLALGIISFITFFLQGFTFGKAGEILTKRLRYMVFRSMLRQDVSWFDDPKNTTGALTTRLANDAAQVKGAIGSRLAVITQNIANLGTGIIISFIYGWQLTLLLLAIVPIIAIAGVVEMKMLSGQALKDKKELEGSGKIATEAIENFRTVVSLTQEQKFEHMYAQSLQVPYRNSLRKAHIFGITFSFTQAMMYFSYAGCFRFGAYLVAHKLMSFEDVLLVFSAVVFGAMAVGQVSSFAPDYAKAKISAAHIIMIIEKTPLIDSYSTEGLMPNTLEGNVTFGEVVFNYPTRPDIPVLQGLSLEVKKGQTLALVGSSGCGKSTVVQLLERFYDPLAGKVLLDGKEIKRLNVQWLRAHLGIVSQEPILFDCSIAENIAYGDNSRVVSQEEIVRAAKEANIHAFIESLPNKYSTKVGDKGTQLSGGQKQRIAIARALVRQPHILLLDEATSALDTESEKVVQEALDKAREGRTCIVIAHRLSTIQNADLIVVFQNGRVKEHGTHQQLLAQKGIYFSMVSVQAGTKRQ
Description: (§2) Substrate susceptibility of Compound (1) on human P-gp. Time-dependence of the bidirectional transcellular transport of 1 μmol/L and 10 μmol/L Compound (1) across human P-gp/Lilly Laboratories Cell-Porcine Kidney 1 (LLC-PK1) cells and mock/LLC-PK1 cells was analyzed. Net flux ratios of some samples incubated with 1 μmol/L Compound (1) for 2 or 3 hours was not calculable as concentrations of these samples were below the lower limit of quantification. […] The net flux ratios of samples incubated with 10 μmol/L Compound (1) for 2, 3, and 4 hours were 1.4±0.4 1.7±0.3, and 1.5±0.2, respectively. The net flux ratios samples incubated with 10 μmol/L Compound (1) with 10 μmol/L zosuquidar for 2, 3, and 4 hours were 1.2±0.3, 1.2±0.1, and 1.1±0.1, respectively.

P-gp = system: T3, P-gp; assay: as above; assay type: in vitro ADME; details: human, LLC-PK1, with zosuquidar 10 μmol/L, read-out: net flux ratio
T3 construct: expressed in transfected cells; host or cells: LLC-PK1 (porcine kidney) cells expressing human P-gp; mock/LLC-PK1 as control
Description: as §2

Compound: C=CC(=O)N1C[C@H](n2c(C#CC3CC3)c(C(=O)N[C@H](C)c3ccccc3)c3c(N)ncnc32)C[C@@H]1C [Compound (1), 7-((3R,5S)-1-acryloyl-5-methylpyrrolidin-3-yl)-4-amino-6-(cyclopropylethynyl)-N—((R)-1-phenylethyl)-7H-pyrrolo[2,3-d]pyrimidine-5-carboxamide]
- IC50 (human BCRP [1]): 332 nM
- GI50 (BT-474 cells): 2.05 ± 0.48 nM
- GI50 (NCI-N87 cells): 0.891 ± 0.312 nM
- GI50 (NCI-H1781 cells): 5.85 ± 2.83 nM
- body weight loss (tolerance) ([2]; 12.5 and 25 mg/kg/day): did not cause severe body weight loss
- T/C ([2]; 12.5 mg/kg/day po Days 1-21): 75.7%
- T/C ([2]; 25 mg/kg/day po Days 1-21): 62.4%
- Number of Death ([2]; 12.5 mg/kg/day po Days 1-21): 0
- TV (mean ± SE) ([2]; 12.5 mg/kg/day po Days 1-21): 435.7 mm^3
- Number of Death ([2]; 25 mg/kg/day po Days 1-21): 0
- TV (mean ± SE) ([2]; 25 mg/kg/day po Days 1-21): 353.7 mm^3
- antitumor effect (tumor volume) ([3]; 12.5 mg/kg/day PO once per day): arresting tumor growth
- antitumor effect (tumor volume) ([3]; 20 mg/kg/day PO once per day): inducing tumor regression
- antitumor effect compared to lapatinib (50 mg/kg b.i.d.) or tucatinib (75 mg/kg b.i.d.) ([3]; 12.5 and 20 mg/kg/day PO): superior antitumor effects
- body weight loss ([3]; 12.5 or 20 mg/kg): did not cause body weight loss
- concentration at which transport via human BCRP is saturable (human BCRP [4]): > 1000 nM
- net flux ratio (human BCRP [4]; 0.3 μmol/L Compound (1), 4 hours): 1.5±0.6
- net flux ratio (human BCRP [4]; 0.5 μmol/L Compound (1) with 10 μmol/L Ko143, 3 hours): 1.2±0.2
- net flux ratio (human BCRP [4]; 0.5 μmol/L Compound (1) with 10 μmol/L Ko143, 4 hours): 1.2±0.2
- net flux ratio (human BCRP [4]; 0.5 μmol/L Compound (1), 2 hours): 1.9±0.9
- net flux ratio (human BCRP [4]; 0.5 μmol/L Compound (1), 3 hours): 3.0±0.9
- net flux ratio (human BCRP [4]; 0.5 μmol/L Compound (1), 4 hours): 2.7±0.8
- net flux ratio (human BCRP [4]; 1 μmol/L Compound (1) with 10 μmol/L Ko143, 4 hours): 1.4±0.2
- net flux ratio (human BCRP [4]; 1 μmol/L Compound (1), 2 hours): 2.3±0.7
- net flux ratio (human BCRP [4]; 1 μmol/L Compound (1), 3 hours): 1.8±0.4
- net flux ratio (human BCRP [4]; 1 μmol/L Compound (1), 4 hours): 2.2±0.7
- net flux ratio (human BCRP [4]; 3 μmol/L Compound (1), 2 hours): 2.0±0.3
- net flux ratio (human BCRP [4]; 3 μmol/L Compound (1), 3 hours): 1.6±0.3
- net flux ratio (human BCRP [4]; 3 μmol/L Compound (1), 4 hours): 1.5±0.2
- net flux ratio (human BCRP [4]; 30 μmol/L Compound (1), 2 hours): 1.4±0.3
- net flux ratio (human BCRP [4]; 30 μmol/L Compound (1), 3 hours): 1.1±0.1
- net flux ratio (human BCRP [4]; 30 μmol/L Compound (1), 4 hours): 1.2±0.1
- substrate susceptibility on human BCRP (human BCRP [4]; criterion net flux ratio exceeding 2): substrate of BCRP
- net flux ratio (human P-gp; 1 μmol/L Compound (1), 4 hours, without zosuquidar): 4.7±0.7
- net flux ratio (human P-gp; 10 μmol/L Compound (1) with 10 μmol/L zosuquidar, 3 hours): 1.2±0.1
- net flux ratio (human P-gp; 10 μmol/L Compound (1), 2 hours): 1.4±0.4
- net flux ratio (human P-gp; 10 μmol/L Compound (1), 3 hours): 1.7±0.3
- net flux ratio (human P-gp; 10 μmol/L Compound (1), 4 hours): 1.5±0.2
- substrate susceptibility on human P-gp (human P-gp; transport saturable by increase of concentration): substrate of P-gp
- efflux ratio at 4 h, 1 μmol/L (P-gp; 1 μmol/L Compound (1), 4 hours, with 10 μmol/L zosuquidar): 1.5 ± 0.6
- efflux ratio at 2 h, 10 μmol/L (P-gp; 10 μmol/L Compound (1) with 10 μmol/L zosuquidar, 2 hours): 1.2 ± 0.3
- efflux ratio at 4 h, 10 μmol/L (P-gp; 10 μmol/L Compound (1) with 10 μmol/L zosuquidar, 4 hours): 1.1 ± 0.1
